The structures appear in SMILES notation. pIC50: −log10 of the molar value.

Series [1] has as its system SARS-CoV-2 (βCoV/KOR/KCDC03/2020). In words: microbe, parasite or virus in culture. As to conditions: Severe acute respiratory syndrome coronavirus 2, Vero.
The nature of series [2]: in vitro. As to conditions: monkey.
Series [3] can be described thus: in vitro. As to conditions: human.
Series [4] has as its system SARS-CoV-2 (βCoV/KOR/KCDC03/2020). In words: in vitro. As to conditions: human.
Series [5] shares this test system. In words: microbe, parasite or virus in culture. As to conditions: Severe acute respiratory syndrome coronavirus 2, Calu-3.
Series [6] shares this test system. Put plainly: in vitro. As to conditions: monkey.
Series [7] concerns SARS-CoV-2 virus (B CoV/Korea/KCDC03/2020, NCCP43326). In words: Time-of-addition assay in Vero cells. The class given is cell-based. As to conditions: 50 μM, MOI 3.
Series [8] relates to influenza A H1N1 A/California/07/2009. Put plainly: Antiviral activity against influenza virus in MDCK cells. It is filed as cell-based, influenza A virus. The following applies: concentration of 6.3 μM.
For series [9], the system named is SARS-CoV-2 βCoV/Korea/KCDC03/2020, NCCP43326. Put plainly: Efficacy in SARS-CoV-2 infected hACE2 transgenic mice (lung virus titer and viral RNA). The following applies: orally at 50 mg/kg, once a day three times, lungs on third day. It is filed as in vivo.
For series [10], the system named is influenza A H3N2 A/Hong Kong/4801/2014. Put plainly: Antiviral activity against influenza virus in MDCK cells. The following applies: concentration of 6.3 μM. It is filed as cell-based, influenza A virus.
Series [11] has as its system SARS-CoV-2 spike pseudovirus particles. Put plainly: organism not typed. The class given is cell-based.
Series [12] deals with influenza B B/Brisbane/60/2008. In words: Antiviral activity against influenza virus in MDCK cells. As to conditions: concentration of 6.3 μM. The class given is cell-based, influenza B virus.

Regarding `CCOC(=O)c1c(C(C)(C)C)oc2ccc(OC(=O)c3ccc(OC)cc3)cc12` [MolPort-000-424-809, Ethyl 2-tert-butyl-5-(4-methoxybenzoyloxy)-1-benzofuran-3-carboxylate], the pIC50 in [1] is 4.51; in series [5], 4.30. Also, the CC50 in “in vitro [2]” and in “in vitro [3]” was over 100 µM throughout. The selectivity ratio in [4] is 1.97.
In series [1], `c1ccc(Oc2cccc(OCCCN3CCCCC3c3cccnc3)c2)cc1` (stereo not shown) [MolPort-000-829-850, 3-{1-[3-(3-phenoxyphenoxy)propyl]piperidin-2-yl}pyridine and oxalic acid] had a pIC50 of 4.81. In the series “in vitro [2]”, this molecule gave a CC50 of 32.4 µM. The selectivity ratio in [6] is 2.08.
On to `CCCCCCCC/C=C\CCCCCCCC(=O)O` [MolPort-001-788-274, (9Z)-octadec-9-enoic acid], for which the negative logarithm of the IC50 (pIC50) in [1] was 4.17. In “in vitro [2]”, the CC50 was over 100 µM.
The matching figures for `CCCCC/C=C\C/C=C\CCCCCCCC(=O)O` [MolPort-001-788-459, (9Z,12Z)-octadeca-9,12-dienoic acid]: 4.42 and over 100 µM.
Take `CC(C)(C)c1cc(CCCOC(=O)CNc2ccccc2)cc(C(C)(C)C)c1O` [MolPort-002-151-168, 3-(3,5-di-tert-butyl-4-hydroxyphenyl)propyl 2-(phenylamino)acetate]: the figures for the negative logarithm of the IC50 (pIC50) in series [1] and in series [5] were 4.63 and 4.22, respectively. The CC50 in the series “in vitro [2]” and in “in vitro [3]” was over 100 µM throughout. For the same molecule, in [4], the selectivity ratio was found to be 1.65.
In the case of `CC(C)(C)c1cc(CCCOC(=O)CNC2CCCCC2)cc(C(C)(C)C)c1O` [MolPort-002-152-403, 3-(3,5-di-tert-butyl-4-hydroxyphenyl)propyl 2-(cyclohexylamino)acetate], the negative logarithm of the IC50 (pIC50) in series [1] is 4.49. In “in vitro [2]”, the CC50 was 56.2 µM. Moreover, the selectivity ratio in series [6] was found to be 1.73.
As for `CCCCCCCCC1OCC(OC(=O)c2ccc(OC)cc2)CO1` (stereo not shown) [MolPort-002-515-990, 2-octyl-1,3-dioxan-5-yl 4-methoxybenzoate], the pIC50 in series [1] was 4.61; in series [5], 4.28. Also, the CC50 in the series “in vitro [2]” and in “in vitro [3]” was over 100 µM in each case. For the same molecule, the selectivity ratio in series [4] was found to be 1.92.
`O=C(OC[C@@H]1CCCN2CCCC[C@H]12)c1ccc(CSCc2ccccc2)o1` [MolPort-002-520-573, [(1R,9aR)-octahydro-1H-quinolizin-1-yl]methyl 5-[(benzylsulfanyl)methyl]furan-2-carboxylate] showed a pIC50 in [1] of 4.55. The CC50 in the series “in vitro [2]” was 58 µM. The selectivity ratio in series [6] was found to be 2.04.
For `CCCc1cc2c3c(c(=O)oc2cc1OC(=O)CNC(=O)OCc1ccccc1)CCC3` [MolPort-002-526-563, 4-oxo-8-propyl-1H,2H,3H,4H-cyclopenta[c]chromen-7-yl 2-{[(benzyloxy)carbonyl]amino}acetate] the same measures were 4.54, 33.4 µM and 1.16.
Molecule `O=C(NCCc1ccccc1)c1cc2c([nH]c3ccccc32)c(CCc2ccccc2)n1` [MolPort-002-526-760, N,1-bis(2-phenylethyl)-9H-pyrido[3,4-b]indole-3-carboxamide] gave a pIC50 in series [1] of 4.59. In “in vitro [2]”, this molecule came in with a CC50 of 42.2 µM. In [6], the selectivity ratio was 1.63.
Consider `CCCCCCCc1ccc(C(=O)Oc2ccc(C(=O)O)cc2)cc1` [MolPort-003-709-991, 4-(4-heptylbenzoyloxy)benzoic acid], for which the pIC50 in [1] is 4.36. Further, the CC50 in “in vitro [2]” is over 100 µM.
In series [1], `CCCCCCCOC(=O)c1ccc(OC(=O)c2cccnc2)cc1` [MolPort-003-711-757, 4-[(heptyloxy)carbonyl]phenyl pyridine-3-carboxylate] gave a negative-log IC50 (pIC50) of 4.61. The same molecule came in with a CC50 in “in vitro [2]” of 49 µM. Moreover, the selectivity ratio in series [6] stood at 2.02.
In turn, `CCCCCCCc1ccc(C(=O)Oc2ccc(SC)cc2)cc1` [MolPort-003-713-147, 4-(methylsulfanyl)phenyl 4-heptylbenzoate] gave a pIC50 in series [1] of 4.03. The CC50 in the series “in vitro [2]” was over 100 µM.
For `CCCCCCCOC(=O)c1ccc(OC(=O)c2cncc(Br)c2)cc1` [MolPort-003-713-431, 4-[(heptyloxy)carbonyl]phenyl 5-bromopyridine-3-carboxylate] the same measures were 4.24 and over 100 µM.
`CC/C=C\C/C=C\C/C=C\C/C=C\C/C=C\C/C=C\CCC(=O)O` [MolPort-003-932-890, (4Z,7Z,10Z,13Z,16Z,19Z)-docosa-4,7,10,13,16,19-hexaenoic acid]: the negative-log IC50 (pIC50) in [1] was 4.23. In addition, in the series “in vitro [2]”, the CC50 came to 62.4 µM. Moreover, the selectivity ratio in series [6] was found to be 1.06.
The matching figures for `CC/C=C\C/C=C\C/C=C\C/C=C\C/C=C\CCCC(=O)O` [MolPort-003-933-180, (5Z,8Z,11Z,14Z,17Z)-icosa-5,8,11,14,17-pentaenoic acid]: 4.38, 70.5 µM and 1.69.
The matching figures for `CC/C=C\C/C=C\C/C=C\CCCCCCCC(=O)O` [MolPort-003-937-817, (9Z,12Z,15Z)-octadeca-9,12,15-trienoic acid]: 4.23, over 100 µM and 1.71.
With `CCCCCC[C@@H](O)C/C=C\CCCCCCCC(=O)O` [MolPort-003-939-239, (9Z,12R)-12-hydroxyoctadec-9-enoic acid], the negative logarithm of the IC50 (pIC50) in series [1] is 4.22. This molecule also yielded a CC50 in the series “in vitro [2]” of over 100 µM.
For the molecule `CCCCCCCCCCC#CC#CCCCCCCCCC(=O)O` [MolPort-003-939-688, tricosa-10,12-diynoic acid], the negative logarithm of the IC50 (pIC50) in [1] was 4.52; in series [5], 4.08. In addition, the CC50 in the series “in vitro [2]” and in “in vitro [3]” was over 100 µM throughout. Also, the selectivity ratio in series [4] was 1.19.
In turn, `O=C(C[C@@H]1CCNC[C@@H]1Cc1cc(COc2ccccc2)on1)NCc1ccc(F)cc1` [MolPort-005-947-745, N-[(4-fluorophenyl)methyl]-2-[(3R,4S)-3-{[5-(phenoxymethyl)-1,2-oxazol-3-yl]methyl}piperidin-4-yl]acetamide] showed a pIC50 in series [1] of 4.61. This molecule showed a CC50 in the series “in vitro [2]” of 34.7 µM. Also, in [6], the selectivity ratio came out at 1.43.
Turning to `O=C(CCCNC(=O)c1cc2ccccc2o1)NCCc1c[nH]c2ccccc12` [MolPort-005-974-761, 4-[(1-benzofuran-2-yl)formamido]-N-[2-(1H-indol-3-yl)ethyl]butanamide], in series [1], the pIC50 is 4.15. The same molecule came in with a CC50 in “in vitro [2]” of over 100 µM.
`CCCCCOc1cccc(/C=C/C23N=C(O)CCN2c2ccccc2C3(C)C)c1` (stereo not shown) [MolPort-005-980-235, 10,10-dimethyl-10a-[(1E)-2-[3-(pentyloxy)phenyl]ethenyl]-3H,4H,10H,10aH-pyrimido[1,2-a]indol-2-ol]: the negative-log IC50 (pIC50) in series [1] is 5.07; in [11] (48 h), 4.56; in series [5], 4.81. Further, the figures for the virus infection pattern result in series [7] (treated 1 hour after virus infection) and in series [7] (treated 1 hour before virus infection or simultaneously with the virus) were “virus infection could not be prevented” and “virus infection did not occur”, respectively. The same molecule yielded a CC50 in “in vitro [2]” of over 100 µM. For the same molecule, the antiviral activity result in series [8] is “about 90%”; in series [10], “about 90%”; in series [12], “about 50%”. The “viral RNA in the lungs” value in series [9] was “decreased at a statistically significant level”. Also, in series [9], the “viral titer (TCID50) in the lungs” value is given as “tended to decrease”. Besides, in series [11] (Severe acute respiratory syndrome coronavirus 2, read-out: inhibition of intracellular entry of the SARS-CoV-2 virus), the inhibition at 50 µM was about 90%. The selectivity ratio in series [4] was determined as 6.42.
Consider `CC/C=C/C/C=C/C/C=C/C/C=C/C/C=C/C/C=C\CCC(=O)O` [MolPort-008-266-638, (4Z,7E,10E,13E,16E,19E)-docosa-4,7,10,13,16,19-hexaenoic acid], for which, in [1], the negative-log IC50 (pIC50) was 4.55. The molecule further yielded a CC50 in “in vitro [2]” of 36.2 µM. The selectivity ratio in series [6] turned out to be 1.29.
For the molecule `CC(C)CCC(CCNCc1ccc(OC(C)C)cc1)C1CCOC(C)(C)C1` (stereo not shown) [MolPort-009-758-577, [3-(2,2-dimethyloxan-4-yl)-6-methylheptyl]({[4-(propan-2-yloxy)phenyl]methyl})amine and oxalic acid], the negative-log IC50 (pIC50) in [1] is 5.10. Moreover, the CC50 in the series “in vitro [2]” worked out at 14.5 µM. In addition, the selectivity ratio in series [6] came out at 1.83.
`O=C(NC[C@@H]1CCCN2CCCC[C@H]12)c1cccc(-c2cc3ccccc3oc2=O)c1` [MolPort-027-564-039, N-{[(1S,9aR)-octahydro-1H-quinolizin-1-yl]methyl}-3-(2-oxo-2H-chromen-3-yl)benzamide] gave a pIC50 in series [1] of 4.63. For the same molecule, in the series “in vitro [2]”, the CC50 was over 100 µM.
In the case of `O=C(Cn1ccc2ccc(OCc3ccccc3)cc21)NC[C@@H]1CCCN2CCCC[C@H]12` [MolPort-027-564-475, N-{[(1S,9aR)-octahydro-1H-quinolizin-1-yl]methyl}-2-[6-(benzyloxy)-1H-indol-1-yl]acetamide], in [1], the pIC50 was 4.73. In addition, in the series “in vitro [2]”, the CC50 amounted to 34.3 µM. The selectivity ratio in series [6] turned out to be 1.85.

Values taken from patent publication US20260130917A1, “ANTIVIRAL COMPOSITION FOR CORONAVIRUS OR INFLUENZA VIRUS, USING NATURAL PRODUCTS, AND USE THEREOF” (priority 2022, published 2026).
